Assay results published in patent US4055640A, “Compositions and methods for controlling the growth of bacteria, fungi and algae using certain derivatives of N-(2,2-dichlorovinyl)salicylamides” (Nippon Kayaku Co., Ltd., priority 1975, dated 1977).
Where a name gives a salt, the structure may show the parent alone.

Assays:
summer orange seedlings = assay: Phytotoxicity on summer orange seedlings (Experimental Example 6); format: in vivo; details: 1,000 ppm
Escherichia coli = assay: Minimum inhibitory amount, dilution methods (Example 24); format: cell-based; details: (2) glucose bouillon medium dilution method
Description: (§1) Bactericidal activity and fungicidal activity of the active compounds of the present invention were examined by potato-dextrose agar dilution method, or [2] glucose bouillon medium dilution method. The results are shown in Table 10 below as the minimum inhibitory concentration (the minimum concentration of active compound found to produce 100% control of the test bacteria and fungi).

Bacillus subtilis = assay: as above; format: cell-based; details: (2) glucose bouillon medium dilution method
Description: as §1

Cladosporium harbarum = assay: as above; format: cell-based; details: (1) potato-dextrose agar dilution method
Description: as §1

Aspergillus niger = assay: as above; format: cell-based; details: (1) potato-dextrose agar dilution method
Description: as §1

Penicillium Citrinum = assay: as above; format: cell-based; details: (1) potato-dextrose agar dilution method
Description: as §1

Staphylococcus aureus = assay: as above; format: cell-based; details: (2) glucose bouillon medium dilution method
Description: as §1

[1] = system: Bacteria, fungi and slime; assay: Inhibition of bacteria, fungi and slime in use (Example 23); details: water soluble concentrate; 10-20 ppm in water, 0.01-0.1% in pastes
Description: Before application, the concentrate was diluted 500-1000 times with water and sprayed on the inside of cotes to prevent the growth of bacteria and fungi.
The solution was added to water in circular water systems to inhibit the growth of slime. The concentration of Compound No. 21 in the water was 10-20 ppm.
An amount of 0.01-0.1% of Compound No. 21 as the solution was added to pastes or binding agents to prevent rottenness of them.

fungi = assay: Degree of propagation on slime test boards (Example 27); format: cell-based; details: same method, shaking culture for 2 days
Description: (§2) Zero point zero two (0.02) part of active compounds in the form of 10% water soluble concentrate which was prepared by Example 23 was added into 100 parts of Waxman's liquid medium. Peices of Wood iron (hereafter referred to as the slime test boards) were soaked into the Waxman's liquid medium. The bacteria which were gathered from circular water system were inoculated upon the Waxman's liquid medium and incubated at 27°-34° C by shaking culture for 2 days. The degree of propagation of the bacteria on the slime test boards was examined.
(§3) Thegrowth-inhibiting activity of active compounds against the fungi and the green algae was also examined by the same method as mentioned above.
(§4) The degree of propagation of the bacteria, fungi or green algae on the test boards is defined in terms of the following symbols.

green algae = assay: as above; format: cell-based; details: same method, shaking culture for 2 days
Description: as §2, §3, §4

[2] = system: bacteria gathered from circular water system; assay: as above; format: cell-based; details: shaking culture for 2 days
Description: as §2, §3, §4

[3] = system: botrytis cinerea (gray mold); assay: Exterminating test on gray mold of tomato (Experimental Example 5); format: in vivo; set-up: scale not given here; details: 1,000 ppm, 48 hours after inoculation, kidney bean leaves
Description: Exterminating test on gray mold of tomato The seedlings of kidney beans (variety: Orient) of 5-6 leaves stage were employed in this test. Eighty percent (80%) wettable powder of the present invention was diluted with water and sprayed over the seedlings in an amount of 10 ml per pot. The leaves were cut from the plant at 24 hours after spraying, and placed in the petri dishes (12 cm in diameter). Thereafter disks (5 mm in diameter) were cut with a cork borer from potato dextrose agar on which the pathogen (botrytis cinerea) was cultured. The disks were placed on the leaves. The dishes were placed in such a moistural condition as to cause the pathogen to propagate. Thiophanate methyl 70% wettable powder on the market was used as a control and tested by the same method. After forty eight (48) hours after inoculation, diameters of the lesions were observed, and an "Effect Index" was calculated as follows; [formula]

[4] = system: seedlings of kidney beans (variety: Orient); assay: Phytotoxicity on kidney beans (Experimental Example 5); format: in vivo; details: 1,000 ppm
[5] = system: Rhizoctonia solani (damping-off of cucumber); assay: Exterminating test on damping-off of cucumber (Experimental Example 3); format: in vivo; details: Rhizoctonia solani, 240 h; 1,000 ppm, soil drench 50 ml per pot, 10 days; read-out: Percentage of healthy seedlings
Summary of the method: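 Pots of field soil infested with Rhizoctonia solani (5 g/pot), sown with 10 Azumamidori cucumber seeds, then drenched with 50 ml aqueous suspension of 80% wettable powder and kept in greenhouse. PCNB 50% wettable powder as control. Percentage of healthy seedlings scored 10 days after inoculation.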

[6] = system: cucumber (variety: Azumamidori); assay: Phytotoxicity on cucumber (Experimental Example 3); format: in vivo; details: 1,000 ppm

O=C(NC=C(Cl)Cl)c1cc(Cl)ccc1O [Compound No. 21, sodium salt of N-(2'-2'-dichlorovinyl)-5-chlorosalicylamide]
Phytotoxicity (summer orange seedlings): Nil | Minimum inhibitory amount (Escherichia coli): 40 µg/mL | Minimum inhibitory amount (Bacillus subtilis): 2.5 µg/mL | Minimum inhibitory amount (Cladosporium harbarum): 5 µg/mL | Minimum inhibitory amount (Aspergillus niger): 10 µg/mL | Minimum inhibitory amount (Penicillium Citrinum): 5 µg/mL | Minimum inhibitory amount (Staphylococcus aureus): 2.5 µg/mL | inhibition of bacteria, fungi and slime [1]: inhibited for a long time | Degree of propagation (fungi): - | Degree of propagation (green algae): - | Degree of propagation [2]: - | Effect Index [3]: 80 | Phytotoxicity [4]: Nil

O=[N+]([O-])c1c(Cl)c(Cl)c(Cl)c(Cl)c1Cl [PCNB, pentachloronitro benzene, reference compound]
pest or weed control at 1000 ppm [5]: 45% | Phytotoxicity [6]: Nil
